# Test system: 2G industrial yeast strains MD4 and T18
# Assay: Fermentations in lignocellulose hydrolysates spiked with a range of inhibitor concentrations
# Type: cell-based, S. cerevisiae
# Settings: five lignocellulose hydrolysates spiked with a range of inhibitor concentrations; both strains MD4 and T18
# Protocol: The medium was spiked with different industrially relevant concentrations of (FIG. 1A, FIG. 1E) HMF, (FIG. 1B, FIG. 1F) furfural, (FIG. 1C, FIG. 1G) formic acid and (FIG. 1D, FIG. 1H) acetic acid.
# As a first step in developing a yeast strain that can cope with the presence of fermentation inhibitors, the level of all relevant inhibitory compounds was measured in five different lignocellulose hydrolysates: two bagasse hydrolysates, two corn cob hydrolysates and one spruce hydrolysate (for composition see Table 2). Fermentations with two 2G industrial yeast strains, MD4 and T18, were performed using these hydrolysates spiked with a range of inhibitor concentrations.
# After preculture of the yeast strains for 48 h at 30° C. with shaking at 200 rpm in YPD2% (10 g/l yeast extract, 20 g/l bacteriological peptone, 2% D-glucose) up to stationary phase, small-scale (10 ml) semi-anaerobic fermentations with MD4 and T18 were performed at pH 5.2, 35° C., shaking at 350 rpm, and a yeast inoculum OD 5.0. Weight loss of the fermentation tubes, which is correlated with CO2 production during conversion of glucose and xylose into ethanol, was measured continuously, or sampling at different timepoints was performed to analyse sugar and inhibitor concentrations by HPLC.
row,SMILES,inhibitory effect on fermentation
1,O=Cc1ccc(O)cc1 [4-hydroxybenzaldehyde],smaller inhibitory effect
2,O=C(O)c1ccc(O)cc1 [4-hydroxybenzoic acid],smaller inhibitory effect
3,"O=Cc1ccc(CO)o1 [HMF, 5-(hydroxymethyl)furfural]",major inhibitors
4,CC(=O)CCC(=O)O [Levulinic acid],smaller inhibitory effect
5,CC(=O)O [acetic acid],major inhibitors
6,O=CO [formic acid],major inhibitors
7,O=Cc1ccco1 [furfural],major inhibitors
8,COc1cc(C=O)ccc1O [vanillin],smaller inhibitory effect

# Reference: patent US20230227769A1, “Means and Methods to Improve Yeast Fermentation Efficiency” (VIB VZW, priority 2020, published 2023)
